Several values for one entry are separate records, joined by “and”; a condition that tells them apart may be missing. Equal entries are not always repeated. Toxic doses and inconclusive results are not listed.
Tested on: B6C3F1 mice, ip Sarcoma M5076, median survival T/C
Test: NCI In Vivo Anticancer Drug Screen. Data for tumor model Sarcoma M5076 (intraperitoneal) in B6C3F1 mice
Settings: endpoint: median survival time, schedule: Q04DX004 (ip), higher = longer survival
In short: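 Survival measured in treated (T) and vehicle control (C) mice with transplantable tumour; result given as T divided by C.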

[1] = dose: 50.0 mg/kg/injection, vehicle: Klucel (hydroxypropylcellulose) (HPC)
[2] = dose: 100.0 mg/kg/injection, vehicle: Klucel (hydroxypropylcellulose) (HPC)
[3] = dose: 50.0 mg/kg/injection, vehicle: saline with Tween-80
[4] = dose: 100.0 mg/kg/injection, vehicle: saline with Tween-80
[5] = dose: 200.0 mg/kg/injection, vehicle: saline with Tween-80
[6] = dose: 400.0 mg/kg/injection, vehicle: saline with Tween-80
[7] = dose: 43.75 mg/kg/injection, vehicle: Klucel (hydroxypropylcellulose) (HPC)
[8] = dose: 25.0 mg/kg/injection, vehicle: saline with Tween-80
[9] = dose: 200.0 mg/kg/injection, vehicle: Klucel (hydroxypropylcellulose) (HPC)

## N=C(N)c1nn(C2OC(CO)C(O)C2O)c2nc[nH]c(=O)c12 (stereo unspecified)
dose: 6.25 mg/kg/injection, vehicle: Klucel + Tween-80
  T/C: 123 % of control
dose: 12.5 mg/kg/injection, vehicle: Klucel + Tween-80
  T/C: 109 % of control
dose: 18.0 mg/kg/injection, vehicle: other
  T/C: 106 % of control
dose: 22.0 mg/kg/injection, vehicle: Klucel + Tween-80
  T/C: 112 % of control
dose: 30.0 mg/kg/injection, vehicle: other
  T/C: 107 % of control
dose: 36.0 mg/kg/injection, vehicle: Klucel + Tween-80
  T/C: 120 % of control
dose: 50.0 mg/kg/injection, vehicle: other
  T/C: 105 % of control
dose: 60.0 mg/kg/injection, vehicle: Klucel + Tween-80
  T/C: 117 % of control
dose: 83.33 mg/kg/injection, vehicle: other
  T/C: 105 % of control
dose: 101.0 mg/kg/injection, vehicle: Klucel + Tween-80
  T/C: 117 % of control

## NC1=NCc2c(sc3c2CCCC3)N1
dose: 12.5 mg/kg/injection, vehicle: Klucel (hydroxypropylcellulose) (HPC)
  T/C: 94 % of control
dose: 25.0 mg/kg/injection, vehicle: Klucel (hydroxypropylcellulose) (HPC)
  T/C: 94 % of control
[1]
  T/C: 96 % of control
[2]
  T/C: 93 % of control

## COCCCNC1=C(C#N)C(=O)NC2(CCCC2)S1
[3]
  T/C: 97 % of control
[4]
  T/C: 97 % of control
[5]
  T/C: 97 % of control
[6]
  T/C: 90 % of control

## CCn1c2ccccc2c2cc(N=Nc3cc4ccccc4cc3O)ccc21
[7]
  T/C: 89 % of control

## O=C(Nc1nc(-c2ccccc2)cs1)OCC(Cl)(Cl)Cl
[8]
  T/C: 103 % of control
[3]
  T/C: 107 % of control
[4]
  T/C: 94 % of control
[5]
  T/C: 91 % of control
[6]
  T/C: 91 % of control

## Cc1cc2nncn2c2nnnn12
dose: 12.5 mg/kg/injection, vehicle: water
  T/C: 101 % of control
dose: 25.0 mg/kg/injection, vehicle: water
  T/C: 98 % of control
dose: 50.0 mg/kg/injection, vehicle: water
  T/C: 95 % of control
dose: 100.0 mg/kg/injection, vehicle: water
  T/C: 101 % of control
dose: 200.0 mg/kg/injection, vehicle: water
  T/C: 98 % of control

## N#CC1C(=O)NC(=S)NC1c1ccccc1 (stereo unspecified)
[1]
  T/C: 97 % of control
[2]
  T/C: 101 % of control
[9]
  T/C: 97 % of control
dose: 400.0 mg/kg/injection, vehicle: Klucel (hydroxypropylcellulose) (HPC)
  T/C: 100 % of control

## Cc1ccc(C2C(C#N)C(=O)NC(=O)C2C#N)cc1 (stereo unspecified)
[1]
  T/C: 99 % of control
[2]
  T/C: 99 % of control
[9]
  T/C: 86 % of control

## O=C1c2ccccc2C(=O)c2c(NCCOCCO)ccc(NCCOCCO)c21
[8]
  T/C: 100 % of control
[3]
  T/C: 103 % of control
[4]
  T/C: 105 % of control
[5]
  T/C: 102 % of control
[6]
  T/C: 99 % of control

## c1nnc(NCNc2nncs2)s1
dose: 25.0 mg/kg/injection, vehicle: suspension in saline
  T/C: 113 % of control
dose: 50.0 mg/kg/injection, vehicle: suspension in saline
  T/C: 122 % of control
dose: 144.0 mg/kg/injection, vehicle: suspension in saline
  T/C: 154 % of control
dose: 200.0 mg/kg/injection, vehicle: suspension in saline
  T/C: 123 % of control
dose: 240.0 mg/kg/injection, vehicle: suspension in saline
  T/C: 164 % of control
dose: 400.0 mg/kg/injection, vehicle: suspension in saline
  T/C: 168 % of control and 177 % of control

## COc1ccccc1N1C(=O)C(=O)C(C(C)=O)C1=O (stereo unspecified)
[7]
  T/C: 115 % of control
dose: 87.5 mg/kg/injection, vehicle: Klucel (hydroxypropylcellulose) (HPC)
  T/C: 98 % of control
dose: 175.0 mg/kg/injection, vehicle: Klucel (hydroxypropylcellulose) (HPC)
  T/C: 100 % of control
dose: 350.0 mg/kg/injection, vehicle: Klucel (hydroxypropylcellulose) (HPC)
  T/C: 98 % of control

Reference: PubChem BioAssay AID292 (DTP/NCI, 2004)
